Experimental data taken from ChEMBL document CHEMBL1201862, “PubChem BioAssay data set” (2004).
Where a name gives a salt, the structure may show the parent alone.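 1) Cells in 96-well plates. 2) Compound, 48 h, 5 concentrations. 3) Linear interpolation between surrounding doses. 4) Unreached endpoint = highest concentration. The concentration for 50% growth inhibition is given as GI50.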 Activity calls are given as the source filed them. Cut-off read from the data, not from the text of the source: active = GI50 up to about 1.1 µM and inactive = higher.

Key:
Assay in all cases: NCI-60 cell line screen, 48 h
[1] = test system: XF498
[2] = test system: DMS-114
[3] = test system: LXFL 529
[4] = test system: KM-20L2
[5] = test system: DMS-273
[6] = test system: RXF 631
[7] = test system: M19-MEL
[8] = test system: HOP-18
[9] = test system: SNB-78

SMILES	GI50 [1]	GI50 [2]	GI50 [3]	GI50 [4]	GI50 [5]	GI50 [6]	GI50 [7]	GI50 [8]	GI50 [9]
COc1cc2c(cc1O)CCN[C@@]21CS[C@H]2c3c(OC(C)=O)c(C)c4c(c3C(COC1=O)N1C2C2c3c(cc(C)c(OC)c3O)CC([C@@H]1O)N2C)OCO4 (some centres not stated)	< 1e-06 µM (active)	< 1e-06 µM (active)	< 1e-06 µM (active)	< 1e-06 µM (active)	< 1e-06 µM (active)	< 1e-06 µM (active)	< 1e-06 µM (active)	–	–
Cc1cccc2[s+]snc12	> 100 µM (inactive)	> 58.5 µM (inactive)	36.1 µM (inactive)	> 100 µM (inactive)	> 100 µM (inactive)	19.7 µM (inactive)	> 60.3 µM (inactive)	> 100 µM (inactive)	> 100 µM (inactive)
O=C(/C=C/c1ccccc1Cl)c1ccc(Cl)c(Cl)c1	–	–	16.1 µM (inactive)	17.3 µM (inactive)	19.9 µM (inactive)	–	16.3 µM (inactive)	14.8 µM (inactive)	16.2 µM (inactive)
O=C(CCc1nnc2s/c(=C\c3ccc(Cl)c(Cl)c3)c(=O)n12)Nc1ccc(Cl)c(Cl)c1	38.7 µM (inactive)	91.2 µM (inactive)	88.1 µM (inactive)	> 100 µM (inactive)	–	–	64.7 µM (inactive)	75.7 µM (inactive)	–
CC(=O)O[C@H]1CCC2[C@@H]3CCC4Nc5[nH]ncc5C[C@]4(C)C3CC[C@@]21C (some centres not stated)	26.2 µM (inactive)	35.8 µM (inactive)	28.5 µM (inactive)	28.1 µM (inactive)	50.7 µM (inactive)	> 100 µM (inactive)	32.7 µM (inactive)	> 100 µM (inactive)	–
CCN(CC)CCNC(=O)c1nn(-c2ccc(Cl)cc2)c2c1CCc1cc(OC)ccc1-2	5.14 µM (inactive)	2.67 µM (inactive)	4.74 µM (inactive)	1.64 µM (inactive)	2.62 µM (inactive)	1.65 µM (inactive)	2.7 µM (inactive)	15.2 µM (inactive)	7.67 µM (inactive)
CCOC(=O)N1CCN(P(=O)(Nc2ccc3[nH]c(NC(=O)OC)nc3c2)Oc2ccccc2)CC1 (configuration not stated)	–	> 100 µM (inactive)	> 100 µM (inactive)	> 100 µM (inactive)	> 100 µM (inactive)	–	> 100 µM (inactive)	87.9 µM (inactive)	> 100 µM (inactive)
COc1ccc(C(C#N)NNC(=O)c2ccccc2O)cc1OC (configuration not stated)	–	0.573 µM (active)	0.526 µM (active)	22 µM (inactive)	0.364 µM (active)	–	6.92 µM (inactive)	10 µM (inactive)	0.685 µM (active)
C[n+]1cc(C(O)c2ccc3c(c2)OCO3)c2ccccc2c1 (configuration not stated)	–	21.9 µM (inactive)	–	45.5 µM (inactive)	31.2 µM (inactive)	40.8 µM (inactive)	40.6 µM (inactive)	–	28.6 µM (inactive)
CC1(C)CC(=O)C(C(=O)Nc2cccs2)=C(O)C1	43 µM (inactive)	–	31.8 µM (inactive)	38.2 µM (inactive)	25.2 µM (inactive)	36.5 µM (inactive)	41.2 µM (inactive)	21.6 µM (inactive)	36.1 µM (inactive)
CN(C)C(=S)/N=c1\ssc(=S)n1C1CCCCC1	19.4 µM (inactive)	13.9 µM (inactive)	13.2 µM (inactive)	40.5 µM (inactive)	28.2 µM (inactive)	19.5 µM (inactive)	18.7 µM (inactive)	> 100 µM (inactive)	–
Cc1[nH]c2ccccc2c1C(=O)CC1(O)C(=O)Nc2ccccc21 (configuration not stated)	–	–	> 100 µM (inactive)	> 100 µM (inactive)	> 100 µM (inactive)	> 100 µM (inactive)	> 100 µM (inactive)	–	61 µM (inactive)
Nn1c(-c2cccc(Cl)c2)nc2ccccc2c1=O	23.5 µM (inactive)	> 100 µM (inactive)	> 100 µM (inactive)	> 100 µM (inactive)	> 100 µM (inactive)	> 100 µM (inactive)	–	68.5 µM (inactive)	> 100 µM (inactive)
COc1cc2c(cc1OC)C(C(CO)CO)N(CC(O)CCl)CC2 (configuration not stated)	> 100 µM (inactive)	–	> 100 µM (inactive)	> 100 µM (inactive)	> 100 µM (inactive)	> 100 µM (inactive)	> 100 µM (inactive)	–	> 100 µM (inactive)
CSc1nc(Cl)c(Br)c(Sc2nc(N)nc3nc[nH]c23)n1	15.8 µM (inactive)	4.74 µM (inactive)	5.79 µM (inactive)	5.9 µM (inactive)	3.14 µM (inactive)	–	7.45 µM (inactive)	–	–
CC1CC2C(=O)NC(=O)C2c2[nH]c3ccccc3c21 (configuration not stated)	> 100 µM (inactive)	96.2 µM (inactive)	> 100 µM (inactive)	–	> 100 µM (inactive)	–	> 100 µM (inactive)	–	> 100 µM (inactive)
CC(=O)OCC(OC(C)=O)C(OC(C)=O)C(OC(C)=O)C(=O)CNn1c(-c2ccccc2Cl)nc2ccccc2c1=O (configuration not stated)	–	> 100 µM (inactive)	> 100 µM (inactive)	> 100 µM (inactive)	> 100 µM (inactive)	–	> 100 µM (inactive)	–	> 100 µM (inactive)
Cc1nc2c(n1CCO)C(=O)c1ccccc1C2=O	33 µM (inactive)	–	36.6 µM (inactive)	33.3 µM (inactive)	20 µM (inactive)	–	2.57 µM (inactive)	–	46.5 µM (inactive)
CCOC(=O)CC(C)C1(C=O)CCCCC1=O (configuration not stated)	> 100 µM (inactive)	23 µM (inactive)	> 100 µM (inactive)	> 100 µM (inactive)	21.1 µM (inactive)	> 100 µM (inactive)	> 100 µM (inactive)	> 100 µM (inactive)	> 100 µM (inactive)
Nc1ccc(C(=O)CC2(O)C(=O)Nc3ccccc32)cc1 (configuration not stated)	> 100 µM (inactive)	> 100 µM (inactive)	> 100 µM (inactive)	> 100 µM (inactive)	> 100 µM (inactive)	–	> 100 µM (inactive)	–	> 100 µM (inactive)
COc1ccc(CN2C(=O)[C@@H]3Cc4c(OC)c(C)c(OC)c(OC)c4[C@H](/C2=C\c2cc(OC)c(OC)c(C)c2OC)N3C(=O)OC(C)C)cc1	–	7.38 µM (inactive)	7.24 µM (inactive)	> 100 µM (inactive)	19.3 µM (inactive)	> 100 µM (inactive)	42.7 µM (inactive)	> 100 µM (inactive)	–
COc1ccc2c(c1)CCC1C3(CCCC21C)OCCO3 (configuration not stated)	–	–	18.2 µM (inactive)	19.7 µM (inactive)	17.5 µM (inactive)	23.9 µM (inactive)	18.6 µM (inactive)	23.1 µM (inactive)	19.4 µM (inactive)
C[Si](C)(C)c1ccc(-c2sc(-c3ccc([Si](C)(C)C)s3)c3c2C[Si]2(C3)Cc3c(-c4ccc([Si](C)(C)C)s4)sc(-c4ccc([Si](C)(C)C)s4)c3C2)s1	> 100 µM (inactive)	–	> 100 µM (inactive)	> 100 µM (inactive)	> 100 µM (inactive)	> 100 µM (inactive)	> 100 µM (inactive)	–	> 100 µM (inactive)
CCCCCCCCCCCCCCNCC(OCC)OCC	13.6 µM (inactive)	12.1 µM (inactive)	15.1 µM (inactive)	10.9 µM (inactive)	–	–	16.2 µM (inactive)	16.6 µM (inactive)	16.8 µM (inactive)
COc1cc([C@H]2c3[nH]c4ccccc4c3C[C@H]3COC(=O)N32)cc(OC)c1O	0.0671 µM (active)	–	–	0.04 µM (active)	0.0163 µM (active)	–	–	64.3 µM (inactive)	2.3 µM (inactive)
CC1CC2(CCC1OCc1ccccc1)OCCO2 (configuration not stated)	> 100 µM (inactive)	> 100 µM (inactive)	> 100 µM (inactive)	–	> 100 µM (inactive)	–	> 100 µM (inactive)	–	> 100 µM (inactive)
N#C/C(=C1\N=NC(N)=C(c2ccc(Cl)cc2)C1=O)c1ccc(Cl)cc1	> 100 µM (inactive)	> 100 µM (inactive)	> 100 µM (inactive)	> 100 µM (inactive)	> 100 µM (inactive)	–	> 100 µM (inactive)	> 100 µM (inactive)	> 100 µM (inactive)
Nc1ncnc2c1ncn2C1CC(O)C(CO)O1 (configuration not stated)	–	> 100 µM (inactive)	> 100 µM (inactive)	> 100 µM (inactive)	> 100 µM (inactive)	–	> 100 µM (inactive)	–	> 100 µM (inactive)
CC(NC(C)(C)C)C(=O)c1cccc(Cl)c1 (configuration not stated) [BUPROPION HYDROCHLORIDE]	> 100 µM (inactive)	> 100 µM (inactive)	> 100 µM (inactive)	> 100 µM (inactive)	> 100 µM (inactive)	> 100 µM (inactive)	> 100 µM (inactive)	–	–
